Data from the supplement of paper PMC10307832.

Assays:
Assay in all cases: relative viability (nuclei count vs DMSO), 5 days (fraction); higher = more cells survive
VX-11e + Linsitinib = compound: CC1=CN=C(N=C1C2=CNC(=C2)C(=O)N[C@H](CO)C3=CC(=CC=C3)Cl)NC4=C(C=C(C=C4)F)Cl [VX-11e] + C[C@]1(O)C[C@@H](c2nc(-c3ccc4ccc(-c5ccccc5)nc4c3)c3c(N)nccn32)C1 [Linsitinib] (partner 1 µM)
Procedure, shortened: (§1)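 Dosing by pin tool came one day after lung cancer cell lines were seeded in 1536-well plates, using either one drug or a fixed anchor-drug dose plus five library-drug doses (not always all listed) in √10 steps. After 5 days, nuclei were counted on 4× images. Relative viability is treated-well nuclei count divided by vehicle-well nuclei count, and values are medians of duplicate plates.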

VX-11e + Pemetrexed = compound: CC1=CN=C(N=C1C2=CNC(=C2)C(=O)N[C@H](CO)C3=CC(=CC=C3)Cl)NC4=C(C=C(C=C4)F)Cl [VX-11e] + Nc1nc2[nH]cc(CCc3ccc(C(=O)N[C@@H](CCC(=O)O)C(=O)O)cc3)c2c(=O)[nH]1 [Pemetrexed] (partner 0.2 µM)
Procedure, shortened: as §1

VX-11e + Vorinostat = compound: CC1=CN=C(N=C1C2=CNC(=C2)C(=O)N[C@H](CO)C3=CC(=CC=C3)Cl)NC4=C(C=C(C=C4)F)Cl [VX-11e] + O=C(CCCCCCC(=O)Nc1ccccc1)NO [Vorinostat] (partner 1 µM)
Procedure, shortened: as §1

VX-11e + Olaparib = compound: CC1=CN=C(N=C1C2=CNC(=C2)C(=O)N[C@H](CO)C3=CC(=CC=C3)Cl)NC4=C(C=C(C=C4)F)Cl [VX-11e] + O=C(c1cc(Cc2n[nH]c(=O)c3ccccc23)ccc1F)N1CCN(C(=O)C2CC2)CC1 [Olaparib] (partner 8 µM)
Procedure, shortened: as §1

Cell Line	relative viability (VX-11e + Linsitinib; first compound 0.04 µM)	relative viability (VX-11e + Linsitinib; first compound 0.1265 µM)	relative viability (VX-11e + Linsitinib; first compound 0.4 µM)	relative viability (VX-11e + Linsitinib; first compound 1.265 µM)	relative viability (VX-11e + Linsitinib; first compound 4 µM)	relative viability (VX-11e + Pemetrexed; first compound 0.04 µM)	relative viability (VX-11e + Pemetrexed; first compound 0.1265 µM)	relative viability (VX-11e + Pemetrexed; first compound 0.4 µM)	relative viability (VX-11e + Pemetrexed; first compound 1.265 µM)	relative viability (VX-11e + Pemetrexed; first compound 4 µM)	relative viability (VX-11e + Vorinostat; first compound 0.04 µM)	relative viability (VX-11e + Vorinostat; first compound 0.1265 µM)	relative viability (VX-11e + Vorinostat; first compound 0.4 µM)	relative viability (VX-11e + Vorinostat; first compound 1.265 µM)	relative viability (VX-11e + Vorinostat; first compound 4 µM)	relative viability (VX-11e + Olaparib; first compound 0.04 µM)	relative viability (VX-11e + Olaparib; first compound 0.1265 µM)	relative viability (VX-11e + Olaparib; first compound 0.4 µM)	relative viability (VX-11e + Olaparib; first compound 1.265 µM)	relative viability (VX-11e + Olaparib; first compound 4 µM)
PC-14	1	0.866	0.953	0.961	0.665	0.132	0.108	0.148	0.134	0.112	0.747	0.692	0.355	0.58	0.302	0.269	0.261	0.222	0.22	0.214
RERF-LC-KJ	0.989	0.863	0.862	0.874	0.708	0.522	0.468	0.42	0.442	0.417	0.7	0.653	0.586	0.594	0.623	1.11	0.884	0.945	0.921	0.979
SK-LU-1	0.597	0.925	1.31	0.771	0.316	1.01	0.981	0.975	0.596	0.301	0.827	0.771	0.766	0.545	0.298	0.537	0.446	0.394	0.365	0.239
SK-MES-1	1.08	1.03	1.07	1.05	0.691	0.903	0.921	0.818	0.553	0.42	1.12	1.04	0.902	0.422	0.393	0.732	0.636	0.826	0.493	0.265
SW 1573	1.03	0.959	0.718	0.78	0.432	–	0.88	0.703	0.559	0.393	–	0.956	0.408	0.432	0.466	0.551	0.472	0.453	0.398	0.23
UMC-11	0.935	0.937	1	1	0.989	0.799	0.762	0.866	0.754	0.681	0.374	0.337	0.447	0.297	0.315	0.377	0.369	0.331	0.335	0.38
